Consider 80 molecules from the METLIN SMRT retention time set (Domingo-Almenara et al. 2019).

Structures are written as SMILES.

The series is described as follows: gradient 5% acetonitrile 3 min, to 50% in 2 min, to 85% in 15 min, held 3 min, 100 µL/min. As to conditions: column: Zorbax Extend-C18 2.1 x 50 mm; eluents: water / acetonitrile, 0.1% formic acid. The method in brief: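 The mobile phases were water and acetonitrile, each with 0.1% formic acid, pumped at 100 μL/min through a Zorbax Extend-C18 column (2.1 × 50 mm, 1.8 μm). Pure standards were injected as mixtures of ~100 molecules and detected by a quadrupole time-of-flight mass spectrometer in positive and negative ionization mode. Retention time came from computationally picked adduct peaks, each inspected by hand.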
For `O=C(CC1CCN(C(=O)c2ccc3oc(-c4ccccc4)nc3c2)CC1)NCc1ccco1`, the RP-LC retention time was 793 s.

In turn, `O=C1Cc2cc(NC(=O)Nc3ccc(Cl)c(Cl)c3)ccc2N1` displayed an RP-LC retention time of 742 s.

On to `CCS(=O)(=O)N1CCCc2cc(C(=O)NC)ccc21`, for which the RP-LC retention time is 657 s.

`COc1ccc(NC(=O)Nc2cnc3c(c2)CCC3)cc1` came in with an RP-LC retention time of 516 s.

On to `CCOc1cc2c(cc1OCC)C1C(C(=O)Nc3cccnc3)c3ccccc3C(=O)N1CC2` (stereo not given), for which the RP-LC retention time turned out to be 611 s.

Turning to `COc1ccc(N2CCN(c3cc(SCC(=O)NCc4ccc(F)cc4)ncn3)CC2)cc1`, the RP-LC retention time came to 830 s.

For `CCCc1cc(C2CCCN2C(=O)Cc2ccc(OC)cc2)no1` (stereo not given), the RP-LC retention time amounted to 909 s.

`COc1ccc(Br)c2c1-c1nc(NC(=O)c3ccc(F)cc3)sc1C2` came in with an RP-LC retention time of 1170 s.

`CC(=O)N1CCc2sc(C(=O)N3CCN(c4cccc(Cl)c4)CC3)cc2C1` registered an RP-LC retention time of 840 s.

`Cc1ccc(S(=O)(=O)N2CCC(C(=O)NCc3csc(-c4cccs4)n3)CC2)cc1C` yielded an RP-LC retention time of 950 s.

In turn, `Cc1c(Cl)cccc1NC(=O)Cn1cnc2nc(N3CCOCC3)ncc2c1=O` returned an RP-LC retention time of 678 s.

For the molecule `CC1(c2ccccc2)CC(C)(C)N(C(=O)CN2CCOCC2)c2ccccc21` (stereo not given), the RP-LC retention time was 744 s.

Take `CCCSCCCNC(=O)Cn1c(=O)c(C)nc2cc(C)c(C)cc21`: the RP-LC retention time is 828 s.

On to `COc1ccc(S(=O)(=O)NC2CCc3nnc(C)n3CC2)cc1Cl` (stereo not given), for which the RP-LC retention time was 641 s.

`Cc1ccnc(N2CCCC(C(=O)NCCc3ccccc3Cl)C2)n1` (stereo not given) gave an RP-LC retention time of 779 s.

`COCCCN1CN=C(Nc2nc(C)c3cccc(OC)c3n2)NC1` had an RP-LC retention time of 615 s.

Regarding `CCc1ccccc1NC(=O)N1CC(c2nc(C)no2)C2(CCOCC2)C1` (stereo not given), the RP-LC retention time was found to be 731 s.

As to `Cc1nn(CC(=O)NCCc2c[nH]c3ccc(Cl)cc23)c(=O)c2noc(C)c12`, the RP-LC retention time worked out at 766 s.

In the case of `CC(C)CNS(=O)(=O)c1cc(-c2nc(CC(C)C)cs2)cs1`, the RP-LC retention time turned out to be 1170 s.

Consider `CCOC(=O)c1nc(NCc2ccc(F)cc2)c2ccccc2n1`, for which the RP-LC retention time was 931 s.

`Cc1nc2ccn(Cc3cccnc3)c(=O)c2cc1C(=O)NC1CCCCC1`: the RP-LC retention time was found to be 620 s.

In turn, `CCn1nnc2ccc(-c3noc(-c4ccc(C#N)cc4)n3)cc21` came in with an RP-LC retention time of 971 s.

Turning to `Cc1ccc(C)c(S(=O)(=O)NCCn2c(C)cnc2C2CCC2)c1`, the RP-LC retention time was 656 s.

On to `Cc1onc(-c2cccc(Br)c2)c1C(=O)NCCCN1CCOCC1`, for which the RP-LC retention time came out at 629 s.

Turning to `CCC(=O)N1c2ccc(S(=O)(=O)N3CCCCC3)cc2CC1C(=O)NC1CCCC1` (stereo not given), the RP-LC retention time is 883 s.

Molecule `Cc1ccc(N(C(=O)Cc2ccccc2)C2C=CS(=O)(=O)C2)cc1Cl` (stereo not given) yielded an RP-LC retention time of 869 s.

Consider `CCn1c(=O)sc2cc(S(=O)(=O)N3CCC(C(=O)N4CCCC4)CC3)ccc21`, for which the RP-LC retention time was 761 s.

Regarding `CCn1cc(-c2nc(C)c(C(=O)NCc3ccccc3F)s2)c2cccnc21`, the RP-LC retention time was 1090 s.

In turn, `CCn1ccc2sc(C)c(C(=O)NCc3ccc(F)cc3)c2c1=O` showed an RP-LC retention time of 798 s.

The molecule `Cc1cc(-c2nnc3sc(COc4ccc(F)cc4)nn23)n[nH]1` gave an RP-LC retention time of 727 s.

With `CCOc1ccc(CNC(=O)c2cc3c(-c4cccs4)nn(-c4ccccc4)c3n2CC)cc1`, the RP-LC retention time was 1240 s.

Consider `CC1OC(O[C@@H]2C=C3CC[C@@H]4[C@H](CC[C@]5(C)[C@@H](c6ccc(=O)oc6)CC[C@]45O)[C@@]3(C)CC2)C(O)C(O)C1O` (stereo not given in full), for which the RP-LC retention time was found to be 691 s.

`Cc1ccn(-c2ccc(C(=O)Nc3ccccc3)cn2)n1`: the RP-LC retention time worked out at 885 s.

`Cc1c(C(=O)NC(C)C)cnn1-c1cc(-c2nc(C3CC3)no2)ccn1` showed an RP-LC retention time of 865 s.

Molecule `COC(=O)c1ncn2c1C(=O)N(CCC1=CCCCC1)C(C)(C(=O)NCc1ccccc1)C2` (stereo not given) registered an RP-LC retention time of 821 s.

On to `CC(C)(C)C(=O)N1CCC(C(=O)Nc2nnc(CCCc3ccccc3)s2)CC1`, for which the RP-LC retention time was found to be 893 s.

`COC(=O)C(C)NC(=O)N1CCN(c2nc3ccccc3n(Cc3ccccc3)c2=O)CC1` (stereo not given): the RP-LC retention time came out at 869 s.

Take `Cc1cccc(N2CCN(Cc3nc(-c4ccc(N5CCSCC5)nc4)no3)CC2)c1`: the RP-LC retention time turned out to be 1000 s.

In turn, `COc1ccc(-c2cc(=O)n(CCNC(=O)c3c(F)cccc3F)cn2)cc1` displayed an RP-LC retention time of 678 s.

As to `O=C(CSCc1ccccc1)NCC1CCN(C(=O)Oc2ccccc2)CC1`, the RP-LC retention time worked out at 853 s.

`CCOC(=O)c1ccc(N2C=C(C#N)S(=O)(=O)c3c(F)cccc32)cc1`: the RP-LC retention time is 930 s.

For `CCOc1ccc(C2Cn3nnc(-c4nc(-c5ccc(F)cc5)no4)c3CO2)cc1` (stereo not given), the RP-LC retention time stood at 1130 s.

For `COc1ccc(-c2noc(-c3cccnc3N3CCN(Cc4ccccc4)CC3)n2)cc1`, the RP-LC retention time worked out at 760 s.

Take `Cc1sc(-c2noc(C(C)C)n2)cc1S(=O)(=O)N1CCC(C(=O)N2CCC(C)CC2)CC1`: the RP-LC retention time stood at 1150 s.

For `Cc1cccc(C(=O)Nc2nc(-c3ccc4c(c3)N(C)C(=O)CO4)cs2)c1`, the RP-LC retention time is 985 s.

Turning to `Cc1ccc(Cl)cc1NC(=O)c1cccn1Cc1noc(C2CC2)n1`, the RP-LC retention time was determined as 1000 s.

Regarding `COCCn1ccc2nc(C)c(C(=O)NCc3ccc(SC)cc3)cc2c1=O`, the RP-LC retention time is 712 s.

Turning to `CC1=C(c2ccc(Cl)cc2)S(=O)(=O)N=C1N1CCCN(C(=O)c2ccoc2)CC1`, the RP-LC retention time was determined as 825 s.

Turning to `O=C([C@@H]1C[C@H](F)CN1C(=O)Nc1ccccc1)N1CCCCC1`, the RP-LC retention time came to 653 s.

Regarding `c1ccc(-c2nc3cc(-c4noc(-c5ccncc5)n4)ccc3o2)cc1`, the RP-LC retention time came out at 1290 s.

For `CCCC(=O)Nc1cc2c(cc1N1CCC(C)CC1)n(C)c(=O)c(=O)n2C`, the RP-LC retention time was 820 s.

With `O=C(Nc1nccs1)c1ccc(Br)cc1F`, the RP-LC retention time is 783 s.

For the molecule `Cn1nc(C(=O)N2CCCC2)c2c1CCN(C(=O)CCC(=O)NCCCN1CCCC1)C2`, the RP-LC retention time was found to be 574 s.

`COc1cccc(CCC(=O)NCC(=O)Nc2nc3ccccc3[nH]2)c1` had an RP-LC retention time of 639 s.

`CCNC(=O)Nc1ccc(N2CCCCC2)nc1` came in with an RP-LC retention time of 561 s.

For the molecule `Cc1sc(C)c(S(=O)(=O)NCc2cccs2)c1-c1cc(C(F)(F)F)on1`, the RP-LC retention time was determined as 1100 s.

As to `NCCC1CCN(C(=O)Nc2cc(F)ccc2F)CC1`, the RP-LC retention time was determined as 588 s.

With `CCC(=O)N1CCc2sc(C(=O)NCc3ccc(F)cc3)cc2C1`, the RP-LC retention time worked out at 750 s.

`COc1ccc(-c2cn3c(CC(=O)Nc4ccc(Cl)cc4)csc3n2)cc1OC` gave an RP-LC retention time of 799 s.

As to `CSc1ccc(-c2nc3ccc(Br)cn3c2NC2CCCCC2)cc1`, the RP-LC retention time is 955 s.

Regarding `Cc1csc(-c2ccc(CNC(=O)Cc3cccc(F)c3)cc2)n1`, the RP-LC retention time was found to be 848 s.

In turn, `CC1CCCN(CCCNC(=O)C2CCN(S(=O)(=O)c3ccc4c(c3)sc(=O)n4C)CC2)C1` (stereo not given) gave an RP-LC retention time of 612 s.

Molecule `COc1ccc(Nc2c(-c3ccc(N(C)C)cc3)nc3cnccn23)cc1OC` returned an RP-LC retention time of 687 s.

In the case of `COc1cccc(Nc2cc(C(=O)N3CCSCC3)nc3c(OC)cccc23)c1`, the RP-LC retention time was determined as 679 s.

Molecule `Cc1ccc(-n2nc(C)c(S(=O)(=O)N3CCC(C(=O)NCc4cccs4)CC3)c2C)cc1` showed an RP-LC retention time of 919 s.

Take `CCc1cccc(C)c1Nc1c(-c2ccc(SC)cc2)nc2cnccn12`: the RP-LC retention time worked out at 1070 s.

`CCOC(=O)c1ccc2nc(C(F)(F)F)nc(NCCCN3CCOCC3)c2c1`: the RP-LC retention time amounted to 658 s.

Turning to `Cc1cc2nn(CC(=O)N3CCc4ccccc43)c(=O)n2c(Nc2ccccc2C)n1`, the RP-LC retention time was determined as 1080 s.

With `CC1=C(C(=O)N(CC(=O)NC2CCC(C)CC2)c2ccc(Cl)cc2)SCCO1` (stereo not given), the RP-LC retention time stood at 1040 s.

`Cc1ccc(NC(=O)Nc2ccc3nnc(C)n3c2)cc1F` gave an RP-LC retention time of 710 s.

`O=C(CCc1c(-c2cccc(Cl)c2)nc2ccccn12)N1CCN(c2ccc(F)cc2)CC1` returned an RP-LC retention time of 724 s.

Molecule `COc1cc(C(=O)C(=O)c2ccc(O)c(OC)c2)ccc1O` returned an RP-LC retention time of 758 s.

In turn, `CCC1CCCCN1C(=O)c1cnc2nc(C)ccc2c1Nc1ccc(C(=O)OC)cc1` (stereo not given) came in with an RP-LC retention time of 681 s.

With `O=c1n(Cc2ccccc2Cl)nc2ccc(S(=O)(=O)N3CCCC3)cn12`, the RP-LC retention time worked out at 866 s.

As for `O=c1n(CCOc2ccccc2)nc2c(S(=O)(=O)N3CCc4ccccc4C3)cccn12`, the RP-LC retention time was 820 s.

Take `CCn1cc(CCN2CCN(S(=O)(=O)c3ccc(C)c(Cl)c3)CC2)c2cccnc21`: the RP-LC retention time turned out to be 708 s.

Consider `Cc1nnc(NC(=O)c2ccc(N3CCCC3)nn2)s1`, for which the RP-LC retention time was 594 s.

In turn, `CCc1ccc(S(=O)(=O)Nc2cccc(-c3cn4c(C)cccc4n3)c2)cc1` yielded an RP-LC retention time of 667 s.

`O=C(Cn1cccc1-c1nc(-c2ccc(Cl)cc2)cs1)NCc1ccccn1` registered an RP-LC retention time of 795 s.

For `O=S(=O)(c1cc(-c2nnc(-c3ccc(F)cc3)o2)ccc1Cl)N1CCOCC1`, the RP-LC retention time is 984 s.
